What all share (assay): NCI tumour cell line growth inhibition, 48 h
Experiment [1] relates to BT-549.
Experiment [2] concerns HT-29.
Experiment [3] concerns NCI-H23.
Experiment [4] concerns A549.
Experiment [5] has as its system A498.
The subject of experiment [6] is HOP-92.
The test system of experiment [7] is DU-145.
Experiment [8] deals with RXF 393.
In experiment [9] the test system is T47D.
For experiment [10], the system named is UACC-257.
Experiment [11] has as its system SW-620.
Experiment [12] has as its system MDA-N.
In experiment [13] the test system is HCC 2998.
Experiment [14] relates to LOX IMVI.
Experiment [15] deals with EKVX.
Experiment [16] relates to SNB-19.
In experiment [17] the test system is SK-MEL-5.
Experiment [18] deals with OVCAR-8.
In experiment [19] the test system is PC-3.

Results on ten compounds are retold here after ChEMBL document CHEMBL1201862, “PubChem BioAssay data set” (2004).

Values joined by “and” are separate entries in the source; they are usually repeats but may differ in a detail not shown here. Equal entries are not always repeated.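 Compound exposure: 48 hours, 5 concentrations, 96-well plates. GI50 = concentration required for 50% inhibition of growth.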 Active and inactive are the calls of the source. Cut-off read from the data, not from the text of the source: active = GI50 up to about 1.1 µM and inactive = higher.

On to `O=C(O)CCCSc1nc2ccccc2s1`, for which the GI50 in experiment [1], in experiment [2], in experiment [3], in experiment [4], in experiment [5] and in experiment [6] was > 100 µM (inactive) each time. Further, the GI50 in experiment [7], in experiment [8], in experiment [9], in experiment [10], in experiment [11] and in experiment [12] was > 100 µM (inactive) throughout. Besides, the GI50 in experiment [13], in experiment [14], in experiment [15], in experiment [16], in [17] and in experiment [18] was > 100 µM (inactive) in each case. The GI50 in experiment [19] is > 100 µM (inactive).
In the case of `CNC1C(=O)C(C)C(O)(C(CC(C)C(O)/C=C/C=C/CNC(=O)C(C)(C)C(O)\C(C)=C/C=C\C=C\Cc2cnc(C)o2)OC)C12C(=O)OC2C.CNC1C(=O)C(C)C(O)(C(CC(C)C(O)/C=C/C=C/CNC(=O)C(C)(C)C(O)\C(C)=C/C=C\C=C\Cc2cnc(C)o2)OC)C12C(=O)OC2COC` (stereo not given), the GI50 in experiment [1] is 25.1 µM (inactive); in [2] it was 3.27 µM (inactive); in [3], 0.218 µM (active); in [4], 0.78 µM (active); in experiment [5], 28.4 µM (inactive); in [6], 2.72 µM (inactive). Moreover, the GI50 in experiment [7] was 31.5 µM (inactive); in [8] it was 17.3 µM (inactive); in experiment [9] it was 0.202 µM (active); in experiment [10] it was 0.188 µM (active); in experiment [11] it was 8.65 µM (inactive); in experiment [12], 15 µM (inactive). The GI50 in [13] is 13.3 µM (inactive); in experiment [14], 14.2 µM (inactive); in [15] it was 0.292 µM (active); in [16], 19.9 µM (inactive); in [17] it was 0.191 µM (active); in experiment [18] it was 0.459 µM (active). Also, the GI50 in experiment [19] is 0.237 µM (active).
Turning to `CCN(CC)CCOC(c1cc(OC)ccc1OC)c1ccc2n1-c1ccccc1OC2` (stereo not given), the GI50 in experiment [1] was 12.7 µM (inactive); in experiment [2], 3.41 µM (inactive); in experiment [3] it was 12.9 µM (inactive); in experiment [4], 14 µM (inactive); in experiment [5], 11.8 µM (inactive); in experiment [6] it was 1.89 µM (inactive). In addition, the GI50 in [7] was 22.9 µM (inactive); in experiment [8], 8.91 µM (inactive); in [9] it was 24 µM (inactive); in [10], 16 µM (inactive); in experiment [11], 8.85 µM (inactive); in experiment [12], 13.6 µM (inactive). The GI50 in [13] is 5.31 µM (inactive); in experiment [14], 11.5 µM (inactive); in experiment [15], 16.1 µM (inactive); in [16], 15.7 µM (inactive); in [17] it was 10.4 µM (inactive); in experiment [18], 13.2 µM (inactive). For the same compound, in experiment [19], the GI50 was 12.8 µM (inactive).
For the compound `O=C(Nc1nnc(-c2ccc(Cl)cc2)o1)C(SC(=S)N1CCCCC1)c1ccccc1` (stereo not given), the GI50 in [1] was 17.6 µM (inactive); in [2] it was 22.2 µM (inactive); in experiment [3], 21.9 µM (inactive); in [4] it was 16.4 µM (inactive); in experiment [5], 18.5 µM (inactive); in experiment [6] it was 22.7 µM (inactive). For the same compound, the GI50 in [7] was 25.7 µM (inactive); in [8], 24.8 µM (inactive); in [9], 27.2 µM (inactive); in experiment [10], 21.7 µM (inactive); in experiment [11], 33.3 µM (inactive); in [12], 15.5 µM (inactive). Also, the GI50 was 21.4 µM (inactive) in [13]; 6.12 µM (inactive) in [14]; 20.7 µM (inactive) in experiment [15]; 20.5 µM (inactive) in experiment [16]; 15.7 µM (inactive) in [17]; 22.1 µM (inactive) in experiment [18]. In addition, the GI50 in experiment [19] was 22.4 µM (inactive).
As for `CCn1cc(C(=O)O)c(=O)c2cc3c(cc21)S(=O)(=O)CC3`, the GI50 in experiment [1], in [2], in experiment [3], in experiment [4], in experiment [5] and in experiment [6] was > 100 µM (inactive) each time. The GI50 in experiment [7], in experiment [8], in [9], in [10], in [11] and in experiment [12] was > 100 µM (inactive) throughout. The GI50 in experiment [13], in experiment [14], in [15], in experiment [16], in experiment [17] and in experiment [18] was > 100 µM (inactive) each time. Moreover, in experiment [19], the GI50 was > 100 µM (inactive).
With `ON[C@@H]1C=C[C@H](n2cnc3c(NC4CC4)ncnc32)C1`, the GI50 in experiment [1], in [2], in experiment [3], in experiment [4], in experiment [5] and in [6] was > 100 µM (inactive) throughout. Moreover, the GI50 in experiment [7], in [8], in [9], in [10], in [11] and in [12] was > 100 µM (inactive) each time. Moreover, the GI50 is > 100 µM (inactive) in experiment [13]; 87.5 µM (inactive) in [14]; > 100 µM (inactive) in [15]; > 100 µM (inactive) in experiment [16]; > 100 µM (inactive) in [17]; > 100 µM (inactive) in experiment [18]. Moreover, the GI50 in experiment [19] was > 100 µM (inactive).
Consider `CCOC(=O)C(O)Cc1cnc2ccccc2n1` (stereo not given), for which the GI50 in experiment [1], in [2], in experiment [3], in [4], in experiment [5] and in experiment [6] was > 100 µM (inactive) throughout. Moreover, the GI50 in experiment [7], in experiment [8], in experiment [9], in experiment [10], in experiment [11] and in [12] was > 100 µM (inactive) throughout. The GI50 in [13] was > 100 µM (inactive); in [14] it was > 100 µM (inactive); in experiment [15] it was 73.5 µM (inactive); in experiment [16] it was > 100 µM (inactive); in [17], > 100 µM (inactive); in experiment [18], > 100 µM (inactive). The GI50 in [19] is > 100 µM (inactive).
For the compound `O=c1/c(=C/c2ccc([N+](=O)[O-])o2)sc2n1[C@@H](c1ccc3c(c1)OCO3)C=C(c1cc(F)c(Cl)cc1Cl)N=2`, the GI50 is 16.8 µM (inactive) in experiment [1]; 17.1 µM (inactive) in experiment [2]; 20.6 µM (inactive) in experiment [3]; 16.4 µM (inactive) in experiment [4]; 56 µM (inactive) in experiment [5]; 12.6 µM (inactive) in [6]. Further, the GI50 is 21.6 µM (inactive) in experiment [7]; 16.1 µM (inactive) in experiment [8]; 17.3 µM (inactive) in experiment [9]; 17.2 µM (inactive) in [10]; 5.42 µM (inactive) in [11]; 5.5 µM (inactive) in experiment [12]. Besides, the GI50 in experiment [13] was 12.9 µM (inactive); in experiment [14], 17.2 µM (inactive); in experiment [15] it was 16.6 µM (inactive); in [16], 20.8 µM (inactive); in experiment [17], 10.3 µM (inactive); in [18] it was 11.9 µM (inactive). Also, the GI50 in experiment [19] is 22 µM (inactive).
For the compound `COC(=O)[C@H](Cc1ccccc1)NC(=O)[C@H](Cc1ccccc1)NC(=O)CN1C(=O)[C@@H]2C3C=CC(C3)[C@@H]2C1=O`, the GI50 in experiment [1] is 16.6 µM (inactive) and 18.2 µM (inactive); in experiment [2], 19.2 µM (inactive) and 20 µM (inactive); in experiment [3], 17.6 µM (inactive) and 17.2 µM (inactive); in [4], 22 µM (inactive) and 21.1 µM (inactive); in experiment [5], 22.9 µM (inactive) and 16.8 µM (inactive); in experiment [6], 18.3 µM (inactive) and 20.6 µM (inactive). Also, the GI50 in experiment [7] was 20.1 µM (inactive) and 17.9 µM (inactive); in experiment [8], 20.5 µM (inactive) and 18.4 µM (inactive); in experiment [9], 21.9 µM (inactive) and 21.7 µM (inactive); in experiment [10], 17.6 µM (inactive) and 16.4 µM (inactive); in [11], 16.5 µM (inactive) and 20.9 µM (inactive); in experiment [12], 16.5 µM (inactive) and 17.2 µM (inactive). Further, the GI50 in experiment [13] was 17.3 µM (inactive) and 16.7 µM (inactive); in experiment [14] it was 18.3 µM (inactive) and 17.9 µM (inactive); in experiment [15] it was 19.8 µM (inactive) and 18.7 µM (inactive); in experiment [16] it was 21 µM (inactive) and 20.8 µM (inactive); in [17], 18.2 µM (inactive) and 15 µM (inactive); in [18], 14.8 µM (inactive) and 19.6 µM (inactive). The GI50 in experiment [19] was 15.6 µM (inactive) and 16.4 µM (inactive).
On to `CN(C)CCNc1ccc2ncnc3c2c1C(=O)c1ccccc1-3`, for which the GI50 in experiment [1] is 5.32 µM (inactive); in [2], 0.463 µM (active); in experiment [3], 0.655 µM (active); in [4], 0.274 µM (active); in [5], 1.64 µM (inactive); in experiment [6], 1.12 µM (active). For the same compound, the GI50 in [7] was 0.476 µM (active); in experiment [8], 0.444 µM (active); in experiment [9] it was 0.619 µM (active); in [10], 2.09 µM (inactive); in [11] it was 0.129 µM (active); in [12], 0.456 µM (active). In addition, the GI50 in experiment [13] is 0.348 µM (active); in experiment [14], 0.24 µM (active); in experiment [15], 0.343 µM (active); in experiment [16], 1.02 µM (active); in experiment [17], 0.759 µM (active); in experiment [18] it was 0.466 µM (active). Besides, in experiment [19], the GI50 was 0.519 µM (active).
